Values quoted from earlier work as cited in US20110008428A1, “SOLID PHARMACEUTICAL COMPOSITION COMPRISING A NON-PEPTIDE ANGIOTENSIN II RECEPTOR ANTAGONIST AND A DIURETIC” (ratiopharm GmbH, priority 2008, published 2011).

Conditions: free acid form; physiological pH range of the gastro-intestinal tract, between pH 1-7

- solubility in aqueous systems: very poor
Compound: CCCc1nc2c(C)cc(-c3nc4ccccc4n3C)cc2n1Cc1ccc(-c2ccccc2C(=O)O)cc1 [Telmisartan, 4′-[(1,4′-dimethyl-2′-n-propyl-[2,6′-bi-1H-benzimidazol]-1′-yl)methyl]-[1,1′-biphenyl]-2-carboxylic acid]
